Measured values: patent US12404289B2 (Gilead Sciences, Inc., priority 2020, dated 2025)
Like-named read-outs stand apart in the source and are kept apart here.

Key:
Format in all cases: cell-based
[1] = system: Respiratory syncytial virus (RSV) strain A2; assay: Hep-2 RSV2 384-well assay (EC50-HEP2-384); settings: human respiratory syncytial virus, HEp-2, 96 h, HEp-2 cells, RSV A2, MOI=4, 4 days, Table 3
[2] = system: Respiratory syncytial virus (RSV) strain A2; assay: RSV antiviral assay (HEp-2, 96 well); settings: Table 3
[3] = system: Recombinant respiratory syncytial virus expressing the firefly luciferase protein (RSV-Fluc); assay: microbe, parasite or virus in culture; settings: Table 4
[4] = system: SARS-CoV-2; assay: SARS-CoV-2 antiviral assay (A549-hACE2, Nano luciferase); settings: A549-hACE2 cells, SARS-CoV2-Nano, MOI 0.025, 48 h, Table 4, read-out: EC50 SARS CoV2
[5] = human respiratory syncytial virus, HEp-2, 96 h, read-out: EC50 RSV HEP2 96, HEp-2 cells, RSV A2, MOI=4, 4 days, 96 well
[6] = human respiratory syncytial virus, NHBE, 72 h, read-out: EC50 RSVFluc NHBE 96, NHBE cells, RSV-Fluc, MOI of 0.1, three days, 96 well
[7] = Severe acute respiratory syndrome coronavirus 2, 48 h
[8] = read-out: EC50 RSVFluc NHBE 96, NHBE cells, RSV-Fluc, MOI of 0.1, three days, 96 well

Compound | EC50 [1] [nM] | EC50 [2, 5] [nM] | EC50 [4, 7] [nM] | further results
CC(C)C(=O)O[C@H]1[C@@H](OC(=O)C(C)C)[C@](C#N)(c2ccc3c(N)ncnn23)O[C@@H]1COP(=O)(N[C@@H](C)C(=O)OC1CCOCC1)Oc1ccc(C(C)(C)C)cc1 (stereo partly drawn) [Example 90, [(2R,3R,4R,5R)-5-(4-aminopyrrolo[2,1-f][1,2,4]triazin-7-yl)-2-[[(4-tert-butylphenoxy)-[[(1S)-1-methyl-2-oxo-2-tetrahydropyran-4-yloxy-ethyl]amino]phosphoryl]oxymethyl]-5-cyano-4-(2-methylpropanoyloxy)tetrahydrofuran-3-yl] 2-methylpropanoate] | 124 | 20.4 |  | 
CC(C)C(=O)O[C@H]1[C@@H](OC(=O)C(C)C)[C@](C#N)(c2ccc3c(N)ncnn23)O[C@@H]1COP(=O)(N[C@@H](C)C(=O)OC1CCC1)Oc1ccc(C2CC2)cc1 (stereo partly shown) [Example 52a] |  | 20.5 | 64.5 | EC50 [3, 6]: 20.8 nM
C[C@H](NP(=O)(OC[C@H]1O[C@@](C#N)(c2ccc3c(N)ncnn23)[C@H](O)[C@@H]1O)Oc1ccc(C(C)(C)C)cc1)C(=O)OCCC(C)(C)C (stereo partly drawn) [Example 61, 3,3-dimethylbutyl (2S)-2-[[[(2R,3S,4R,5R)-5-(4-aminopyrrolo[2,1-f][1,2,4]triazin-7-yl)-5-cyano-3,4-dihydroxy-tetrahydrofuran-2-yl]methoxy-(4-tert-butylphenoxy)phosphoryl]amino]propanoate] | 72.4 | 36.7 |  | 
C[C@H](NP(=O)(OC[C@H]1O[C@@](C#N)(c2ccc3c(N)ncnn23)[C@H](O)[C@@H]1O)Oc1ccc(C(C)(C)C)cc1)C(=O)OC1CC2(CCC2)C1 (stereo partly drawn) [Example 65, spiro[3.3]heptan-2-yl (2S)-2-[[[(2R,3S,4R,5R)-5-(4-aminopyrrolo[2,1-f][1,2,4]triazin-7-yl)-5-cyano-3,4-dihydroxy-tetrahydrofuran-2-yl]methoxy-(4-tert-butylphenoxy)phosphoryl]amino]propanoate] |  | 336 |  | EC50 [3, 8]: 3.24 nM; EC50 [4]: 265 nM
CC(=O)O[C@H]1[C@@H](OC(C)=O)[C@](C#N)(c2ccc3c(N)ncnn23)O[C@@H]1COP(=O)(N[C@@H](C)C(=O)OC1CC2(CCC2)C1)Oc1ccc(C(C)(C)C)cc1 (stereo partly drawn) [Example 80, Spiro[3.3]heptan-2-yl (2S)-2-[[(4-tert-butylphenoxy)-[[(2R,3R,4R,5R)-3,4-diacetoxy-5-(4-aminopyrrolo[2,1-f][1,2,4]triazin-7-yl)-5-cyano-tetrahydrofuran-2-yl]methoxy]phosphoryl]amino]propanoate] |  | 16.9 |  | EC50 [3, 8]: 16.5 nM; EC50 [4]: 310 nM
CCC(CC)COC(=O)[C@H](C)NP(=O)(OC[C@H]1O[C@@](C#N)(c2ccc3c(N)ncnn23)[C@H](O)[C@@H]1O)Oc1ccc2ccccc2c1 (stereo partly drawn) [Intermediate S3, 2-ethylbutyl ((((2R,3S,4R,5R)-5-(4-aminopyrrolo[2,1-f][1,2,4]triazin-7-yl)-5-cyano-3,4-dihydroxytetrahydrofuran-2-yl)methoxy)(naphthalen-2-yloxy)phosphoryl)-L-alaninate] |  |  | 113 | EC50 [3, 6]: 5.51 nM
CCC(C)(C)CCOC(=O)[C@H](C)NP(=O)(OC[C@H]1O[C@@](C#N)(c2ccc3c(N)ncnn23)[C@H](OC(C)=O)[C@@H]1OC(C)=O)Oc1ccc(C(C)(C)C)cc1 (stereo partly drawn) [Example 159, (2R,3R,4R,5R)-2-(4-aminopyrrolo[2,1-f][1,2,4]triazin-7-yl)-5-((((4-(tert-butyl)phenoxy)(((S)-1-((3,3-dimethylpentyl)oxy)-1-oxopropan-2-yl)amino)phosphoryl)oxy)methyl)-2-cyanotetrahydrofuran-3,4-diyl Diacetate] | 79.3 |  | 369 | 
CCC(CC)COC(=O)[C@H](C)NP(=O)(OC[C@H]1O[C@@](C#N)(c2ccc3c(N)ncnn23)[C@H](O)[C@@H]1O)Oc1ccccn1 (single isomer, unassigned) [Example 175a] | 5000 |  |  | EC50 [4]: 3360 nM
C[C@@H](CC(=O)OC1CCC1)NP(=O)(OC[C@H]1O[C@@](C#N)(c2ccc3c(N)ncnn23)[C@H](O)[C@@H]1O)Oc1ccc(C(C)(C)C)cc1 (stereo partly drawn) [Example 165, cyclobutyl (3S)-3-(((((2R,3S,4R,5R)-5-(4-aminopyrrolo[2,1-f][1,2,4]triazin-7-yl)-5-cyano-3,4-dihydroxytetrahydrofuran-2-yl)methoxy)(4-(tert-butyl)phenoxy)phosphoryl)amino)butanoate] | 5000 |  | 10000 | 
CC(=O)O[C@H]1[C@@H](OC(C)=O)[C@](C#N)(c2ccc3c(N)ncnn23)O[C@@H]1COP(=O)(N[C@@H](C)C(=O)OC1CC2(CCCC2)C1)Oc1ccc(C(C)(C)C)cc1 (stereo partly drawn) [Example 98a, (2R,3R,4R,5R)-2-(4-aminopyrrolo[2,1-f][1,2,4]triazin-7-yl)-5-((((4-(tert-butyl)phenoxy)(((S)-1-oxo-1-(spiro[3.4]octan-2-yloxy)propan-2-yl)amino)phosphoryl)oxy)methyl)-2-cyanotetrahydrofuran-3,4-diyl Diacetate] | 62.1 |  | 176 | 
CC(=O)O[C@H]1[C@@H](OC(C)=O)[C@](C#N)(c2ccc3c(N)ncnn23)O[C@@H]1COP(=O)(N[C@@H](C)C(=O)OCC1CCCCC1)Oc1ccc(C(C)(C)C)cc1 (stereo partly drawn) [Example 163, (2R,3R,4R,5R)-2-(4-aminopyrrolo[2,1-f][1,2,4]triazin-7-yl)-5-((((4-(tert-butyl)phenoxy)(((S)-1-(cyclohexylmethoxy)-1-oxopropan-2-yl)amino)phosphoryl)oxy)methyl)-2-cyanotetrahydrofuran-3,4-diyl Diacetate] | 68 |  | 378 | 
CCOC(=O)[C@H](C)NP(=O)(OC[C@H]1O[C@@](C#N)(c2ccc3c(N)ncnn23)[C@H](OC(=O)C(C)C)[C@@H]1OC(=O)C(C)C)Oc1ccc(C23CC(C2)C3)cc1 (stereo partly drawn) [Example 43, (2R,3R,4R,5R)-2-(4-aminopyrrolo[2,1-f][1,2,4]triazin-7-yl)-5-((((4-(bicyclo[1.1.1]pentan-1-yl)phenoxy)(((S)-1-ethoxy-1-oxopropan-2-yl)amino)phosphoryl)oxy)methyl)-2-cyanotetrahydrofuran-3,4-diyl bis(2-methylpropanoate)] | 62.8 |  | 168 | 
CC(C)C(=O)O[C@H]1[C@@H](OC(=O)C(C)C)[C@](C#N)(c2ccc3c(N)ncnn23)O[C@@H]1COP(=O)(N[C@@H](C)C(=O)OC1CC(C)(C)C1)Oc1ccc(C(C)(C)C)cc1 (stereo partly drawn) [Example 94, (2R,3R,4R,5R)-2-(4-aminopyrrolo[2,1-f][1,2,4]triazin-7-yl)-5-((((4-(tert-butyl)phenoxy)(((S)-1-(3,3-dimethylcyclobutoxy)-1-oxopropan-2-yl)amino)phosphoryl)oxy)methyl)-2-cyanotetrahydrofuran-3,4-diyl bis(2-methylpropanoate)] | 84.5 |  | 370 | 
CCC(C)(C)COC(=O)[C@H](C)NP(=O)(OC[C@H]1O[C@@](C#N)(c2ccc3c(N)ncnn23)[C@H](OC(=O)C(C)C)[C@@H]1OC(=O)C(C)C)Oc1ccc(C(C)(C)C)cc1 (stereo partly drawn) [Example 126, (2R,3R,4R,5R)-2-(4-aminopyrrolo[2,1-f][1,2,4]triazin-7-yl)-5-((((4-(tert-butyl)phenoxy)(((S)-1-(2,2-dimethylbutoxy)-1-oxopropan-2-yl)amino)phosphoryl)oxy)methyl)-2-cyanotetrahydrofuran-3,4-diyl bis(2-methylpropanoate)] | 116 | 17 | 77.4 | 
CCC(CC)COC(=O)[C@H](C)NP(=O)(OC[C@H]1O[C@@](C#N)(c2ccc3c(N)ncnn23)[C@H](O)[C@@H]1O)Oc1ccc2ccccc2c1 (single isomer, unassigned) [Intermediate S3-b] | 68 |  |  | EC50 ([2]; read-out: EC50 RSV HEP2 96, HEp-2 cells, RSV A2, MOI=4, 4 days, 96 well): 18.8 nM
CC(=O)O[C@H]1[C@@H](OC(C)=O)[C@](C#N)(c2ccc3c(N)ncnn23)O[C@@H]1COP(=O)(N[C@@H](C)C(=O)OCC1CCC1)Oc1ccccc1 (stereo partly drawn) [Example 145, (2R,3R,4R,5R)-2-(4-aminopyrrolo[2,1-f][1,2,4]triazin-7-yl)-2-cyano-5-((((((S)-1-(cyclobutylmethoxy)-1-oxopropan-2-yl)amino)(phenoxy)phosphoryl)oxy)methyl)tetrahydrofuran-3,4-diyl Diacetate] | 35 |  | 101 | 
CC(=O)O[C@H]1[C@@H](OC(C)=O)[C@](C#N)(c2ccc3c(N)ncnn23)O[C@@H]1CO[P@@](=O)(N[C@@H](C)C(=O)O[C@H]1CCOC1)Oc1ccc(C(C)(C)C)cc1 [Example 37, (2R,3R,4R,5R)-2-(4-aminopyrrolo[2,1-f][1,2,4]triazin-7-yl)-5-((((4-(tert-butyl)phenoxy)(((S)-1-oxo-1-(((S)-tetrahydrofuran-3-yl)oxy)propan-2-yl)amino)phosphoryl)oxy)methyl)-2-cyanotetrahydrofuran-3,4-diyl Diacetate] | 187 |  | 282 | 
CCC(C)(C)CCOC(=O)[C@H](C)NP(=O)(OC[C@H]1O[C@@](C#N)(c2ccc3c(N)ncnn23)[C@H](OC(C)=O)[C@@H]1OC(C)=O)Oc1ccccc1 (stereo partly drawn) [Example 106a, (2R,3R,4R,5R)-2-(4-aminopyrrolo[2,1-f][1,2,4]triazin-7-yl)-2-cyano-5-((((((S)-1-((3,3-dimethylpentyl)oxy)-1-oxopropan-2-yl)amino)(phenoxy)phosphoryl)oxy)methyl)tetrahydrofuran-3,4-diyl Diacetate] | 46.8 |  | 83.1 | 
